One may read the Km as the concentration of substrate that gives half-maximal velocity. Usually stoichiometry N stands for the number of molecules, sites or subunits per partner or assembly.

Test [1] addresses T1, human LDHD (Homo sapiens, UniProt Q86WU2).
T1 construct: ~50 kDa predicted, dimer by gel filtration
T1 sequence (Q86WU2 53-484 isoform Q86WU2-2): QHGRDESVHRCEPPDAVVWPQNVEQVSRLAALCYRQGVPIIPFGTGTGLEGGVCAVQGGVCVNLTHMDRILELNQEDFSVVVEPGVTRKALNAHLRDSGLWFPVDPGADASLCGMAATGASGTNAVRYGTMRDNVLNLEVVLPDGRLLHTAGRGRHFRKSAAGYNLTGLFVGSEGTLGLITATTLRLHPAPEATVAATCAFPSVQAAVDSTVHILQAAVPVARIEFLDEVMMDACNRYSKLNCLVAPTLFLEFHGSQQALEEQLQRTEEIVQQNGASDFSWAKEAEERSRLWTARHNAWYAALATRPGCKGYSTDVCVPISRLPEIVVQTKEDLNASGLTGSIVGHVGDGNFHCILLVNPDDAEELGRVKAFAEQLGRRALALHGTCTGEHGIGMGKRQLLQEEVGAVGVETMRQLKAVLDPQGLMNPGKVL
The experiment in a line: cytochrome c reduction, absorbance at […] nm. Format: biochemical. The following applies: 200 µM bovine heart cytochrome c as electron acceptor, 50 mM potassium phosphate pH 8.5; 10 mM substrate.

Test [2] concerns the target T1, human LDHD. The experiment in a line: cytochrome c reduction, absorbance at […] nm. Format: biochemical. The settings on record: 200 µM bovine heart cytochrome c as electron acceptor, 50 mM potassium phosphate pH 8.5.
Test [3] addresses human D-lactate dehydrogenase (LDHD) isoform 2 (Komagataella phaffii | human). The test is described as follows: SEC; Superdex 200 10/300 GL, after elution from Talon cobalt resin; running buffer not stated. For orientation: Size exclusion chromatography separates by hydrodynamic size, large species first.

`CC[C@@H](O)C(=O)O` [D-2-hydroxybutyrate]: the “relative initial rate at 10 mM” value at human LDHD [1] was “we identified D-2-hydroxybutyrate as another LDHD substrate that can be used to reduce cytochrome c”. Consider `C[C@@H](O)C(=O)O` [D-lactate], for which the Km at human LDHD [2] amounted to 112 µM. As to “human D-lactate dehydrogenase (LDHD) isoform 2 (enzyme)”, the stoichiometry N in test [3] came out at 2.
